Results on 24 compounds are retold here after patent EP4782450A1, “NOVEL SKELETAL DERIVATIVE EFFECTIVE FOR HER2 MUTATION, AND PHARMACEUTICAL COMPOSITION COMPRISING SAME” (Hanmi Pharm. Co., Ltd., priority 2023, dated 2025).

Test [1] concerns wild-type EGFR overexpressing Ba/F3 cells. Put plainly: Growth inhibition of Ba/F3 cells engineered to overexpress wild-type EGFR (CellTiter-Glo luminescence). Format: cell-based. Conditions: Mus musculus, BaF3, 72 hours, concentrations 10000 to 8 nM, read-out: Ba/F3 EGFR^WT GI50 class. In short, it runs like this: (§1)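 Ba/F3 cells overexpressing HER2 A775_G776insYVMA (1000–0.32 nM) or wild-type EGFR (10000–8 nM) treated 72 h at 37°C in RPMI/10% FBS. Viability by CellTiter-Glo luminescence; GI50 by nonlinear regression with untreated growth set at 100%.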
(In general: In ATP-based viability assays light output follows the ATP content of the culture.)

Test [2] relates to Ba/F3 HER2 A775insYVMA. Nature of the test: Growth inhibition of Ba/F3 cells engineered to overexpress HER2 A775_G776insYVMA (CellTiter-Glo luminescence). Type of test: cell-based. Conditions: Mus musculus, BaF3, 72 hours, concentrations 1000 to 0.32 nM, read-out: Ba/F3 HER2^YVMA GI50 class. In short, it runs like this:
as §1

Take `C=CC(=O)N(C)C(C)/C=C/c1ccc2ncnc(Nc3ccc(Oc4ccc5c(c4)ncn5C)c(C)c3)c2n1` (stereo not drawn) [Example 50, (E)-N-methyl-N-(4-(4-((3-methyl-4-((1-methyl-1H-benzo[d]imidazol-5-yl)oxy)phenyl)amino)pyrido[3,2-d]pyrimidin-6-yl)but-3-en-2-yl)acrylamide]: the GI50 is 1 to 5 µM in test [1] and less than 0.1 µM in test [2].

Take `C=CC(=O)N1CC[C@H]1C#Cc1ccc2ncnc(Nc3ccc(Oc4ccn5ncnc5c4)c(C)c3)c2c1` [Example 79, (S)-1-(2-((4-((4-([1,2,4]triazolo[1,5-a]pyridin-7-yloxy)-3-methylphenyl)amino)quinazolin-6-yl)ethynyl)azetidin-1-yl)prop-2-en-1-one]: the GI50 in test [1] and in test [2] was 1 to 5 µM throughout.

On to `C=CC(=O)N(C)C/C=C/c1ccc2ncnc(Nc3ccc(Oc4ccc5c(c4)ncn5C)c(C)c3)c2n1` [Example 23, (E)-N-methyl-N-(3-(4-((3-methyl-4-((1-methyl-1H-benzo[d]imidazol-5-yl)oxy)phenyl)amino)pyrido[3,2-d]pyrimidin-6-yl)aryl)acrylamide], for which the GI50 in test [1] is greater than 5 µM; in test [2] it was less than 0.1 µM.

In the case of `Cc1cc(Nc2ncnc3ccc(/C=C/CN(C)C(=O)/C=C/CN(C)C)nc23)ccc1Oc1ccc2c(c1)ncn2C` [Example 32, (E)-4-(dimethylamino)-N-methyl-N-((E)-3-(4-((3-methyl-4-((1-methyl-1H-benzo[d]imidazol-5-yl)oxy)phenyl)amino)pyrido[3,2-d]pyrimidin-6-yl)allyl)but-2-enamide], the GI50 in test [1] is greater than 5 µM; in test [2], 0.1 to 1 µM.

Turning to `C=CC(=O)N(C)CCN(C)c1ccc2ncnc(Nc3ccc(Oc4ccn5ncnc5c4)c(C)c3)c2n1` [Example 13, N-(2-((4-((4-([1,2,4]triazolo[1,5-a]pyridin-7-yloxy)-3-methylphenyl)amino)pyrido[3,2-d]pyrimidin-6-yl)(methyl)amino)ethyl)-N-methylacrylamide], the figures for the GI50 in test [1] and in test [2] were 1 to 5 µM and 0.1 to 1 µM, respectively.

For the compound `C=CC(=O)N(C)CC#Cc1cnc2ncnc(Nc3ccc(Oc4ccn5ncnc5c4)c(C)c3)c2c1` [Example 66, N-(3-(4-((4-([1,2,4]triazolo[1,5-a]pyridin-7-yloxy)-3-methylphenyl)amino)pyrido[2,3-d]pyrimidin-6-yl)prop-2-yn-1-yl)-N-methylacrylamide], the GI50 in test [1] and in test [2] was 1 to 5 µM throughout.

Take `C=CC(=O)N1CCCC[C@H]1C#Cc1ncc2ncnc(Nc3ccc(Oc4ccc5c(c4)ncn5C)c(C)c3)c2n1` [Example 92, (S)-1-(2-((8-((3-methyl-4-((1-methyl-1H-benzo[d]imidazol-5-yl)oxy)phenyl)amino)pyrimido[5,4-d]pyrimidin-2-yl)ethynyl)piperidin-1-yl)prop-2-en-1-one]: the GI50 in test [1] and in test [2] was 0.1 to 1 µM throughout.

As to `C=CC(=O)N(C)CCOc1ccc2ncnc(Nc3ccc(Oc4ccc5c(c4)ncn5C)c(C)c3)c2c1` [Example 5, N-methyl-N-(2-((4-((3-methyl-4-((1-methyl-1H-benzo[d]imidazol-5-yl)oxy)phenyl)amino)quinazolin-6-yl)oxy)ethyl)acrylamide], the GI50 in test [1] is greater than 5 µM; in test [2] it was less than 0.1 µM.

Take `C=CC(=O)N(C)CCNc1ncc2ncnc(Nc3ccc(Oc4ccn5ncnc5c4)c(C)c3)c2n1` [Example 12, N-(2-((8-((4-([1,2,4]triazolo[1,5-a]pyridin-7-yloxy)-3-methylphenyl)amino)pyrimido[5,4-d]pyrimidin-2-yl)amino)ethyl)-N-methylacrylamide]: the GI50 in test [1] and in test [2] was 1 to 5 µM throughout.

`C=CC(=O)N(C)C/C=C/c1ccc2ncnc(Nc3ccc(Oc4cnc5c(c4)ncn5C)c(C)c3)c2n1` [Example 43, (E)-N-methyl-N-(3-(4-((3-methyl-4-((3-methyl-3H-imidazo[4,5-b]pyridin-6-yl)oxy)phenyl)amino)pyrido[3,2-d]pyrimidin-6-yl)allyl)acrylamide]: the values for the GI50 in test [1] and in test [2] were 1 to 5 µM and less than 0.1 µM, respectively.

In the case of `C=CC(=O)N(C)[C@H](C)/C=C/c1ccc2ncnc(Nc3ccc(Oc4ccc5c(c4)ncn5C)c(C)c3)c2n1` [Example 52, (R,E)-N-methyl-N-(4-(4-((3-methyl-4-((1-methyl-1H-benzo[d]imidazol-5-yl)oxy)phenyl)amino)pyrido[3,2-d]pyrimidin-6-yl)but-3-en-2-yl)acrylamide], the GI50 in test [1] was 1 to 5 µM; in test [2], less than 0.1 µM.

Consider `C=CC(=O)N(C)CCN(C)c1ccc2ncnc(Nc3ccc(Oc4ccc5c(c4)ncn5C)c(C)c3)c2n1` [Example 18, N-methyl-N-(2-(methyl(4-((3-methyl-4-((1-methyl-1H-benzo[d]imidazol-5-yl)oxy)phenyl)amino)pyrido[3,2-d]pyrimidin-6-yl)amino)ethyl)acrylamide], for which the GI50 in test [1] was greater than 5 µM; in test [2], 0.1 to 1 µM.

As to `C=CC(=O)N1CCC(/C=C/c2ccc3ncnc(Nc4ccc(Oc5ccc6c(c5)ncn6C)c(C)c4)c3n2)C1` (stereo not drawn) [Example 29, (E)-1-(3-(2-(4-((3-methyl-4-((1-methyl-1H-benzo[d]imidazol-5-yl)oxy)phenyl)amino)pyrido[3,2-d]pyrimidin-6-yl)vinyl)pyrrolidin-1-yl)prop-2-en-1-one], the GI50 is 1 to 5 µM in test [1] and less than 0.1 µM in test [2].

Take `C=CC(=O)N(C)C/C=C/c1ccc2ncnc(Nc3ccc(Oc4ccc5c(c4)ncn5C)c(F)c3)c2n1` [Example 55, (E)-N-(3-(4-((3-fluoro-4-((1-methyl-1H-benzo[d]imidazol-5-yl)oxy)phenyl)amino)pyrido[3,2-d]pyrimidin-6-yl)allyl)-N-methylacrylamide]: the GI50 in test [1] was greater than 5 µM; in test [2] it was less than 0.1 µM.

With `C=CC(=O)N(C)CCCOc1ccc2ncnc(Nc3ccc(Oc4ccc5c(c4)ncn5C)c(C)c3)c2n1` [Example 9, N-methyl-N-(3-((4-((3-methyl-4-((1-methyl-1H-benzo[d]imidazol-5-yl)oxy)phenyl)amino)pyrido[3,2-d]pyrimidin-6-yl)oxy)propyl)acrylamide], the GI50 in test [1] was greater than 5 µM; in test [2] it was 0.1 to 1 µM.

Consider `C=CC(=O)N(C)CC#Cc1ccc2ncnc(Nc3ccc(Oc4ccn5ncnc5c4)c(C)c3)c2n1` [Example 68, N-(3-(4-((4-([1,2,4]triazolo[1,5-a]pyridin-7-yloxy)-3-methylphenyl)amino)pyrido[3,2-d]pyrimidin-6-yl)prop-2-yn-1-yl)-N-methylacrylamide], for which the GI50 in test [1] was 0.1 to 1 µM; in test [2], less than 0.1 µM.

Take `C=CC(=O)NC/C=C/c1ccc2ncnc(Nc3ccc(Oc4ccn5ncnc5c4)c(C)c3)c2n1` [Example 38, (E)-N-(3-(4-((4-([1,2,4]triazolo[1,5-a]pyridin-7-yloxy)-3-methylphenyl)amino)pyrido[3,2-d]pyrimidin-6-yl)allyl)acrylamide]: the GI50 is 0.1 to 1 µM in test [1] and less than 0.1 µM in test [2].

In the case of `C=CC(=O)N(C)C/C=C/c1ccc2ncnc(Nc3ccc(Oc4ccc5ocnc5c4)c(C)c3)c2n1` [Example 57, (E)-N-(3-(4-((4-(benzo[d]oxazol-5-yloxy)-3-methylphenyl)amino)pyrido[3,2-d]pyrimidin-6-yl)allyl)-N-methylacrylamide], the GI50 in test [1] is 0.1 to 1 µM; in test [2], less than 0.1 µM.

With `C=CC(=O)N(C)[C@@H](C)/C=C/c1ccc2ncnc(Nc3ccc(Oc4ccc5c(c4)ncn5C)c(C)c3)c2n1` [Example 51, (S,E)-N-methyl-N-(4-(4-((3-methyl-4-((1-methyl-1H-benzo[d]imidazol-5-yl)oxy)phenyl)amino)pyrido[3,2-d]pyrimidin-6-yl)but-3-en-2-yl)acrylamide], the figures for the GI50 in test [1] and in test [2] were 1 to 5 µM and less than 0.1 µM, respectively.

As to `C=CC(=O)N(C)CCOc1cc2c(Nc3ccc(Oc4ccn5ncnc5c4)c(C)c3)ncnc2cc1OC` [Example 2, N-(2-((4-((4-([1,2,4]triazolo[1,5-a]pyridin-7-yloxy)-3-methylphenyl)amino)-7-methoxyquinazolin-6-yl)oxy)ethyl)-N-methylacrylamide], the GI50 in test [1] was 0.1 to 1 µM; in test [2], less than 0.1 µM.

`C=CC(=O)N(C)CCN(C)c1ncc2ncnc(Nc3ccc(Oc4ccn5ncnc5c4)c(C)c3)c2n1` [Example 14, N-(2-((8-((4-([1,2,4]triazolo[1,5-a]pyridin-7-yloxy)-3-methylphenyl)amino)pyrimido[5,4-d]pyrimidin-2-yl)(methyl)amino)ethyl)-N-methylacrylamide]: the GI50 in test [1] and in test [2] was 1 to 5 µM in each case.

As for `C=CC(=O)N1CCCC[C@@H]1C#Cc1ccc2ncnc(Nc3ccc(Oc4ccn5ncnc5c4)c(C)c3)c2c1` [Example 76, (R)-1-(2-((4-((4-([1,2,4]triazolo[1,5-a]pyridin-7-yloxy)-3-methylphenyl)amino)quinazolin-6-yl)ethynyl)piperidin-1-yl)prop-2-en-1-one], the values for the GI50 in test [1] and in test [2] were 0.1 to 1 µM and less than 0.1 µM, respectively.

Take `C=CC(=O)N1CCC[C@H]1C#Cc1ccc2ncnc(Nc3ccc(Oc4ccn5ncnc5c4)c(C)c3)c2c1` [Example 75, (S)-1-(2-((4-((4-([1,2,4]triazolo[1,5-a]pyridin-7-yloxy)-3-methylphenyl)amino)quinazolin-6-yl)ethynyl)pyrrolidin-1-yl)prop-2-en-1-one]: the figures for the GI50 in test [1] and in test [2] were 0.1 to 1 µM and less than 0.1 µM, respectively.

In the case of `Cc1cc(Nc2ncnc3ccc(/C=C/CN(C)C(=O)/C=C/CN4CCOCC4)nc23)ccc1Oc1ccc2c(c1)ncn2C` [Example 62, (E)-N-methyl-N-((E)-3-(4-((3-methyl-4-((1-methyl-1H-benzo[d]imidazol-5-yl)oxy)phenyl)amino)pyrido[3,2-d]pyrimidin-6-yl)allyl)-4-morpholinobut-2-enamide], the GI50 in test [1] was greater than 5 µM; in test [2], 0.1 to 1 µM.
